SMILES strings stand for the structures.

Results on eight compounds are retold here after patent US20170000903A1, “CRYSTALLINE CELLULOSE GEL-BASED CRYPTANDS, SURFACE ACTIVE AGENTS, EMULSIONS AND VESICLES” (UNIVERSITY OF SASKATCHEWAN, priority 2013, published 2017).

The conditions of data set [1]: cited from earlier work.
Data set [2] in a line: Solubility of Clotrimazole in water / methanol, dark field microscopy. Type of data set: physicochemical.
From the text: The methanol solution was then mixed with 1% cellulose gel (treatment) and water (positive control). All samples were examined under a dark field microscope.
A short description of data set [3]: Dye release from crystalline cellulose gel to liquid phase (visual and spectrophotometric). The conditions noted are these: for release pattern from crystalline cellulose gel (very slow, slow, fast, very fast): categorised from absorbance in the liquid phase, 0-72 hours; for dye release to liquid phase, absorbance: over 72 hours, 10 ml RO water over gel, at absorbance maximum of dye, 4 AU = saturation; for colour of solution above the precipitate after 72 hours (dye diffusion out of cellulose crystals): 72 hours at room temperature (approximately 21-22° C.), visual. Type of data set: physicochemical. On the procedure: Approximately 2 ml aliquots of 3% w/v crystalline cellulose gel samples containing small solid cellulose crystals were thoroughly mixed with respective model dye solutions and incubated for 30 minutes at room temperature. The stained samples where then centrifuged. The supernatant was decanted, and the pellets containing crystalline cellulose were washed several times with reverse osmosis water and centrifuged. The cycles of washing and centrifugation were repeated until water in which cellulose gel was suspended was clear. After the final wash, small samples of each gel were taken for microscopic examination, and the gels in each tube were covered with a 10 ml column of RO water. These preparations served as media for monitoring the rate of dye release from crystalline cellulose gel to the surrounding liquid phase. Following a few minutes of sample equilibration, 500 μl of the liquid phase was withdrawn from each preparation for spectroscopic measurements to establish absorbance values at time 0. Subsequently, 500 μl samples of the liquid phase were collected at 2, 6, 12, 24, 48, and 72 hour intervals for monitoring of dye release to the liquid phase from the cellulose matrix over time.

Where [4] appears, read: 1 mg per ml, dark field microscope.

As to `Clc1ccccc1C(c1ccccc1)(c1ccccc1)n1ccnc1` [Clotrimazole], in data set [1], the “solubility in organic solvents (known property)” value is “soluble in acetone, chloroform, methanol and ethanol”; the “solubility in water (known property)” value is recorded as “practically insoluble in water”. Also, in data set [2] (setting [4]), the solubility in methanol entry is listed as “totally dissolved in methanol” and the solubility in water entry is reported as “not soluble in water”. In addition, the “behaviour of methanol solution mixed with water” value in data set [2] (methanol solution 1 mg per ml mixed with water) is on record as “fine crystals precipitated”.

Turning to `CCN(CC)c1ccc(C(=C2C=CC(=[N+](CC)CC)C=C2)c2ccccc2)cc1` [brilliant green, Brilliant Green], in data set [3], the “release pattern from crystalline cellulose gel (very slow, slow, fast, very fast)” value (shortened to “release pattern”) is listed as “very fast” and the “dye release to liquid phase, absorbance” value worked out at 4 AU.

In the case of `Nc1c(/N=N/c2ccc(-c3ccc(/N=N/c4cc(S(=O)(=O)[O-])c5ccccc5c4N)cc3)cc2)cc(S(=O)(=O)[O-])c2ccccc12.[Na+].[Na+]` [congo red, Congo Red], in data set [3], the “colour of solution above the precipitate after 72 hours (dye diffusion out of cellulose crystals)” value (“colour of solution above the precipitate” for short) is on record as “diffused out of the precipitated cellulose crystals”; the “release pattern” value is reported as “slow”; the “dye release to liquid phase, absorbance” value was determined as 0.128 AU.

Regarding `Oc1cc2c(cc1O)[C@@H]1c3ccc(O)c(O)c3OC[C@]1(O)C2` [haematoxylin, Hematoxilin], in data set [3], the “colour of solution above the precipitate” value is “diffused out of the precipitated cellulose crystals”; the “release pattern” value was “slow”; the “dye release to liquid phase, absorbance” value was determined as 0.09 AU.

Consider `CCN(Cc1cccc(S(=O)(=O)[O-])c1)c1ccc(C(=C2C=CC(=[N+](CC)Cc3cccc(S(=O)(=O)O)c3)C=C2)c2ccc(S(=O)(=O)O)cc2)cc1` [light green, Light Green], for which, in data set [3], the “release pattern” value is “very fast” and the “dye release to liquid phase, absorbance” value is 4 AU.

Regarding `CN(C)c1ccc(C(=C2C=CC(=[N+](C)C)C=C2)c2ccccc2)cc1.[Cl-]` [malachite green, Malachite Green], in data set [3], the “release pattern” value is reported as “slow” and the “dye release to liquid phase, absorbance” value is reported as 0.32 AU.

`CN(C)c1ccc2nc3ccc(=[N+](C)C)cc-3sc2c1` [methylene blue, Methylene Blue]: in data set [3], the “colour of solution above the precipitate” value is given as “slight bluish hue”; the “release pattern” value was “very slow”; the “dye release to liquid phase, absorbance” value is recorded as 0.025 AU.

In the case of `Cc1cc2nc3cc(C)c(N)cc3[n+](-c3ccccc3)c2cc1N` [safranine, Safranine], in data set [3], the “colour of solution above the precipitate” value is on record as “slight pinkish hue”; the “release pattern” value was “slow”; the “dye release to liquid phase, absorbance” value came out at 0.08 AU.
